Data on one compound can be found in patent publication US11607422B2, “Uttroside B and derivatives thereof as therapeutics for hepatocellular carcinoma” (Rajiv Gandhi Centre for Biotechnology, an Autonomous …, priority 2016, dated 2023).

One assay deals with A375. The assay is described as follows: MTT cell viability assay in A375 cells. The format is cell-based. The settings on record: 72 h. On the procedure: FIG. 2A is a graph comparison of IC50 of Uttroside B in a panel of cancer cells of different origin. The cancer cell lines HeLa, A375, HepG2, MDA-MB-231, HL 60, A549 and HCT116 were treated with Uttroside B as indicated, incubated for 72 h and the cell viability was assessed by MTT assay. FIG. 2B is a graph showing dose dependent effect of Uttroside B in the liver cancer cell lines and in normal immortalized hepatocytes. The liver cancer cell lines HepG2, Hep3B, SKHEP-1, Huh-7 and normal hepatocytes (Chang liver), were treated with Uttroside B incubated for 72 h and the cell viability was assessed by MTT assay. FIG. 2C is a graph comparison of IC50 of Uttroside B with sorafenib. HepG2 cells were treated with Uttroside B as indicated, incubated for 72 h, and the cell viability was assessed by MTT assay. […] The clones developed were counted and plotted as a graph. Colony containing more than four cells was counted as one clone. […]
MTT [3-(4,5-dimethylthiazole-2-yl)-2,5-diphenyltetrazolium bromide] assay is a standard colorimetric assay, suitable for analyzing proliferation, viability, and cytotoxicity. […] After overnight incubation, cells were treated with different concentrations of organic extracts (25-250 μg/ml) of S. nigrum and the isolated compound Uttroside B (250-1250 nM) for 72 h and cytotoxicity was measured. […]

In the next assay the test system is HepG2 cells. Description: Phase contrast microscopy of morphological changes in HepG2 cells. The format is cell-based, human. On the procedure: FIG. 2A is a graph comparison of IC50 of Uttroside B in a panel of cancer cells of different origin. The cancer cell lines HeLa, A375, HepG2, MDA-MB-231, HL 60, A549 and HCT116 were treated with Uttroside B as indicated, incubated for 72 h and the cell viability was assessed by MTT assay. FIG. 2B is a graph showing dose dependent effect of Uttroside B in the liver cancer cell lines and in normal immortalized hepatocytes. The liver cancer cell lines HepG2, Hep3B, SKHEP-1, Huh-7 and normal hepatocytes (Chang liver), were treated with Uttroside B incubated for 72 h and the cell viability was assessed by MTT assay. FIG. 2C is a graph comparison of IC50 of Uttroside B with sorafenib. HepG2 cells were treated with Uttroside B as indicated, incubated for 72 h, and the cell viability was assessed by MTT assay. FIG. 2D is an image of the morphological changes induced by Uttroside B in HepG2 cells. […] FIG. 2E is an image showing Uttroside B inhibits the clonogenic potential of HepG2 cells. HepG2 cells were treated with different concentrations of Uttroside B for 72 h and the clonogenic assay was performed. FIG. 2F is a graph comparison of efficacy of Uttroside B in inhibiting the clonogenic potential of HepG2 cells. The clones developed were counted and plotted as a graph. Colony containing more than four cells was counted as one clone. […]

Molecules are shown by their SMILES.

As usually defined, the IC50 is the midpoint of a concentration-inhibition curve. Read a high IC50 as a need for much substance.

As for `C[C@H](CC[C@@]1(O)O[C@H]2C[C@H]3[C@@H]4CC[C@H]5C[C@@H](O[C@@H]6O[C@H](CO)[C@H](O[C@@H]7O[C@H](CO)[C@@H](O)[C@H](O[C@@H]8OC[C@@H](O)[C@H](O)[C@H]8O)[C@H]7O[C@@H]7O[C@H](CO)[C@@H](O)[C@H](O)[C@H]7O)[C@H](O)[C@H]6O)CC[C@]5(C)[C@H]4CC[C@]3(C)[C@H]2[C@@H]1C)CO[C@@H]1O[C@H](CO)[C@@H](O)[C@H](O)[C@H]1O` [Uttroside B], the IC50 in the assay on A375 stood at 1600 nM. In addition, the “morphological changes characteristic of apoptosis” value in the assay on HepG2 cells (72 h, dose dependent) is “Nuclear condensation, membrane blebbing and formation of apoptotic bodies”. The vacuole formation entry in the assay on HepG2 cells (HepG2, 24 h) is “induces vacuole formation”.
